In brackets after ≈: the same amount, converted by molar mass. Read-outs that look alike come from different tables or passages of the source.
Key:
[1] = tested on: ethanol ulcer in the gland gastric region; assay: Ethanol ulcer; type: in vivo; settings: rats fasted 24 hours, drug oral, 99.5% ethanol 1 ml/rat after one hour, size of ulcer one hour later; for Suppression: dose not given
Procedure: Ethanol Ulcer Rats were fasted for 24 hours and orally administered with a drug. After one hour, 99.5% ethanol (1 ml/rat) was fed through oral administration. After one hour of ethanol administration, the abdomens of the rats were dissected and the size of ulcer in the gland gastric region was measured for each rat.

[2] = molecular target: H/K-ATPase (Oryctolagus cuniculus, UniProt P27112); assay: H/K-ATPase inhibition; type: biochemical; settings: pH 7.4, H/K-ATPase from rabbit gastric mucous membrane
Procedure: H/K-ATPase Inhibition The inhibitory effect was measured under pH 7.4, by using H/K-ATPase isolated and purified from the rabbit gastric mucous membrane.

[3] = tested on: Helicobacter pylori; assay: Anti-Helicobacter-pylori action (agar plate dilution MIC); type: cell-based; settings: clinically isolated 10 bacterial strains, agar plate dilution method
Procedure: Anti-Helicobacter-pylori Action
Using clinically isolated 10 bacterial strains, the minimum inhibitory concentration (MIC) was measured according to the agar plate dilution method.

[4] = tested on: gastric acid secretion; assay: Acid-secretion suppression (pyloric ligation); type: in vivo, Rats; settings: pyloric region ligated, drug to the duodenum, gastric juice after four hours, total acidity by titration; dose not given
Procedure: Acid-secretion Suppression Rats were fasted for 24 hours and the abdomens of the rats were dissected under anesthesia with ether. The pyloric region was ligated and a drug was administered to the duodenum. After four hours, the stomach was removed and the gastric juice was collected to evaluate the acid-secretion suppresssing effects by measuring the total acidity of the gastric juice through titration.

[5] = tested on: rat red blood cell; assay: Hemolytic action; type: cell-based; settings: 10% rat red blood cell stock, 1% DMSO containing saline, 30 minutes at 37° C., absorbance 540 nm
Procedure: Hemolytic Action […] After incubation for 30 minutes at, 37° C., the mixture was centrifugally separated and the supernatant was obtained. The absorbance (540 nm) of the supernatant was measured. The hemolysis ratio was calculated.

[6] = Helicobacter pylori, read-out: MIC

H/K-ATPase, sequence (P27112 whole entry): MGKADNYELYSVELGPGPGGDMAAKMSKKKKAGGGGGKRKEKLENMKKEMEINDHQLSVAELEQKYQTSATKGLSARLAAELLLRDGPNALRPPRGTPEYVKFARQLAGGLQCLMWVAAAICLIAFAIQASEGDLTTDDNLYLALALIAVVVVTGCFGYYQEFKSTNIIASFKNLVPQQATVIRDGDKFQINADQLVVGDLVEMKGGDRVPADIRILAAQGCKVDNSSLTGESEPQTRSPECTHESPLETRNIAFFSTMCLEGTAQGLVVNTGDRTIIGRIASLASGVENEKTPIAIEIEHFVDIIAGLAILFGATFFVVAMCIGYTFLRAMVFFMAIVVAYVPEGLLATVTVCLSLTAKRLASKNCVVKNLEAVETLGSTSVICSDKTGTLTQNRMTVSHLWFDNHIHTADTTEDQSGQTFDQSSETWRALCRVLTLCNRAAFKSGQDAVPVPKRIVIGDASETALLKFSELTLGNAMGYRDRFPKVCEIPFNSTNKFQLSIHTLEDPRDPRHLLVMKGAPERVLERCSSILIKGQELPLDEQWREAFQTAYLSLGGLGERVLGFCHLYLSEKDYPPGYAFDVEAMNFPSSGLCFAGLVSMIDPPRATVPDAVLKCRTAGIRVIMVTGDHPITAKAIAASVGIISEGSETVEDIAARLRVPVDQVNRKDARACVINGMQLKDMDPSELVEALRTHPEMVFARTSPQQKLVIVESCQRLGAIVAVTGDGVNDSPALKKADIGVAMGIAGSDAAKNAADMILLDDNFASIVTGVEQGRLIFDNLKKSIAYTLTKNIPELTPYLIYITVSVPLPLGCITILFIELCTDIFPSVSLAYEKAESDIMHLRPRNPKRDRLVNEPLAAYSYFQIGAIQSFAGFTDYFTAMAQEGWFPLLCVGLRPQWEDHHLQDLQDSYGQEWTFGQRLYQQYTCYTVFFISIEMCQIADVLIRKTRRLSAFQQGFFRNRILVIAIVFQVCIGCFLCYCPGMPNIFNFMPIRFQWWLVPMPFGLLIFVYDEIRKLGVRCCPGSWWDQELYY
H/K-ATPase, sequence (P18597 whole entry partner): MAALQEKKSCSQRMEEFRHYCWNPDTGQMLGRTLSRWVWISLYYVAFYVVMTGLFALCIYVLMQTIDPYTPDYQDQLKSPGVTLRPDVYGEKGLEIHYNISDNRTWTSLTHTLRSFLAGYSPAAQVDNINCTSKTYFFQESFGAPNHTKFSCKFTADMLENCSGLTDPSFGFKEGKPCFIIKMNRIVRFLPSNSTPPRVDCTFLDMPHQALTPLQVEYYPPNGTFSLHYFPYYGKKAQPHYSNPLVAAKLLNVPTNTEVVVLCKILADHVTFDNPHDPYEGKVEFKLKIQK

| SMILES | IC50 [2] [µM] | Suppression [1] [%] | Suppression [4] [%] | further results |
| --- | --- | --- | --- | --- |
| NCCOCCN(c1ccccc1NCCOc1ccc(Cl)cc1)S(=O)(=O)c1ccc(Cl)cc1.O=C(O)C(O)C(O)C(=O)O [Example 4, N-[2-(2-Aminoethoxy)ethyl]-N-(4-chlorobenzenesulfonyl)-N′-[2-(4-chlorophenoxy)ethyl]-o-phenylenediamine Tartaric Acid Salt] | 7.4 | 85 | – | ED50 ([1]; read-out: ED50): 5.3 mg/kg; MIC [3, 6]: 25 to 50 mg/L |
| NCCCCCN(c1ccccc1NCCOc1ccc(Cl)cc1)S(=O)(=O)c1ccc(Cl)cc1 [Example 13, N-(5-Aminopenthyl)-N-(4-chlorobenzenesulfonyl)-N′-[2-(4-chlorophenoxy)ethyl]-o-phenylenediamine] | – | – | 82 | MIC [3]: 25 to 50 mg/L |
| NCCOCCN(c1ccccc1NCCOc1ccc(Cl)cc1)S(=O)(=O)c1ccc(Br)cc1 [Example 43, N-[2-(2-Amino)ethoxyethyl]-N-(4-bromobenzenesulfonyl)-N′-[2-(4-chlorophenoxy)ethyl]-o-phenylenediamine] | – | 78 | 80 | HC50 [5]: >100 µg/mL |
| NCCOCCN(c1ccccc1NCCOc1ccc(Cl)cc1)S(=O)(=O)c1ccc(I)cc1 [Example 45, N-[2-(2-Amino)ethoxyethyl]-N-(4-iodobenzenesulfonyl)-N′-[2-(4-chlorophenoxy)ethyl]-o-phenylenediamine] | – | – | 80 | – |
| NCCOCCN(c1ccccc1NCCCOc1ccc(Cl)cc1)S(=O)(=O)c1ccc(Cl)cc1 [Example 61, N-[2-(2-Amino)ethoxyethyl]-N-(4-chlorobenzenesulfonyl)-N′-[3-(4-chlorophenoxy)propyl]-o-phenylenediamine] | – | – | 87 | – |
| CN(CCOc1ccc(Cl)cc1)c1ccccc1N(CCOCCN)S(=O)(=O)c1ccc(Cl)cc1 [Example 68] | – | 94 | 83 | – |
| O=S(=O)(c1ccc(Cl)cc1)N(CCC1CCCCN1)c1cccnc1NCCNc1ccc(Cl)cc1 (centres unmarked) [Example 95] | – | 99 | 90 | – |
| NCCOCCN(c1ccccc1N1CCN(c2ccc(Cl)cc2)CC1)S(=O)(=O)c1ccc(Cl)cc1 [Example 131, 2-[4-(4-Chlorophenyl)-1-piperazino]-1-[N-[2-(2-aminoethoxy)ethyl]-N-(4-chlorobenzenesulfonyl)]aminobenzene] | – | – | 89 | – |
| NCCOCCN(c1ccccc1N1CCCN(c2ccc(Cl)cc2)CC1)S(=O)(=O)c1ccc(Cl)cc1 [Example 134, 2-[4-(4-Chlorophenyl)-1-homopiperazino]-1-[N-[2-(2-aminoethoxy)ethyl]-N-(4-chlorobenzenesulfonyl)]aminobenzene] | – | 98 | 87 | – |
| NCCOCCN(c1cccnc1N1CCN(c2ccc(Cl)cc2)CC1)S(=O)(=O)c1ccc(Cl)cc1 [Example 137, 2-[4-(4-Chlorophenyl)-1-piperazino]-3-[N-[2-(2-aminoethoxy)ethyl]-N-(4-chlorobenzenesulfonyl)]aminopyridine] | – | – | 76 | – |

The next lines start with results.

| IC50 [2] [µM] | SMILES | Suppression [1] [%] | Suppression [4] [%] | further results |
| --- | --- | --- | --- | --- |
| 49.4 | CCCCS(=O)(=O)N(CCOCCN)c1ccccc1NCCOc1ccc(Cl)cc1 [Example 21] | 99 | 76 | MIC [3, 6]: 50 to 100 mg/L (≈ 106 to 213 µM); HC50 [5]: 71.1 µg/mL |
| 190 | CS(=O)(=O)N(CCOCCN)c1ccccc1NCCOc1ccc(Cl)cc1 [Example 22, N-[2-(2-Amino)ethoxyethyl]-N-(methanesulfonyl)-N′-[2-(4-chloro)phenoxyethyl]-o-phenylenediamine] | – | – | HC50 [5]: 55.7 µg/mL |
| 130 | CCCS(=O)(=O)N(CCOCCN)c1ccccc1NCCOc1ccc(Cl)cc1 [Example 24, N-[2-(2-Amino)ethoxyethyl]-N-(1-propanesulfonyl)-N′-[2-(4-chlorophenoxy)ethyl]-o-phenylenediamine] | – | – | HC50 [5]: 99.6 µg/mL |
| 140 | CC(C)S(=O)(=O)N(CCOCCN)c1ccccc1NCCOc1ccc(Cl)cc1 [Example 25, N-[2-(2-Amino)ethoxyethyl]-N-(2-propanesulfonyl)-N′-[2-(4-chlorophenoxy)ethyl]-o-phenylenediamine] | – | – | HC50 [5]: 120 µg/mL |
| 2.1 | CCCCCCCCS(=O)(=O)N(CCOCCN)c1ccccc1NCCOc1ccc(Cl)cc1 [Example 26, N-[2-(2-Amino)ethoxyethyl]-N-(1-octanesulfonyl)-N′-[2-(4-chlorophenoxy)ethyl]-o-phenylenediamine] | 98 | 82 | – |
| 1.1 | NCCOCCN(c1ccccc1N(CCOc1ccc(Cl)cc1)Cc1ccccc1)S(=O)(=O)c1ccc(Cl)cc1 [Example 70, N-[2-(2-Amino)ethoxyethyl]-N-(4-chlorobenzenesulfonyl)-N′-benzyl-N′-[2-(4-chlorophenoxy)ethyl]-o-phenylenediamine] | 96 | 81 | MIC [3, 6]: 6.25 to 12.5 mg/L (≈ 10.2 to 20.3 µM) |
| 1.1 | NCCN(c1cccnc1NCCNc1ccc(Cl)cc1)S(=O)(=O)c1ccc(Cl)cc1 [Example 86, 3-[N-(4-Chlorobenzenesulfonyl)-N-(2-aminoethyl)]amino-2-[2-(4-chlorophenyl)aminoethyl]aminopyridine] | 79 | – | – |
| 2 | NCCOCCN(c1cccc2c1N(CCOc1ccc(Cl)cc1)CCC2)S(=O)(=O)c1ccc(Cl)cc1 [Example 140, 8-[N-[2-(2-Aminoethoxy)ethyl]-N-(4-chlorobenzenesulfonyl)]amino-1-[2-(4-chlorophenoxy)ethyl]-1,2,3,4-tetrahydroquinone] | 94 | 85 | – |
| 11.4 | NCCOCCN(c1ccccc1Oc1ccc(Cl)cc1)S(=O)(=O)c1ccc(Cl)cc1 [Example 144, 1-[N-[2-(2-Aminoethoxy)ethyl]-N-(4-chlorobenzenesulfonyl)]-2-(4-chlorophenoxy)aniline] | – | – | MIC [3, 6]: 25 to 50 mg/L (≈ 51.9 to 104 µM) |

Reference: patent publication US6403607B1, “Sulfonamide derivatives and drugs containing the same as the active ingredient” (priority 1998, dated 2002)
